Assay results from PubChem BioAssay AID2060909 (Molecular Pharmacology Branch, DTP, NCI, 2025).
pIC50: −log10 of the molar value.

Test system: 362531-283-R-J2-PDC complex spheroid viability
Assay: Anticancer human tumor 362531-283-R-J2-PDC patient-derived colon adenocarcinoma cell line growth inhibition [RAS]
Settings: for viability, T/C: stronger effect = lower value
Method in brief: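 Agents were tested in combination matrices in half-log decrements from a top concentration at or near clinical Cmax (10 microM if undetermined). Targets were multi-cell spheroids of tumour lines plus HUVEC and MSC stromal cells.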
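Further: spheroids exposed to the agents for 7 days before readout.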
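Wherever viability, T/C is given: luminescence viability as percent of DMSO vehicle control wells.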

`CC(C)NCC(C(=O)N1CCN(c2ncnc3c2C(C)CC3O)CC1)c1ccc(Cl)cc1` (stereo unspecified) + CCn1c(-c2cc(N3CCN(C)CC3)cnc2C(C)OC)c2c3cc(ccc31)-c1csc(n1)CC(NC(=O)C1CC1C)C(=O)N1CCCC(N1)C(=O)OCC(C)(C)C2 was tested, and the pIC50 (curve of first compound, second compound 0.000949 µM) was less than 5.00, the pIC50 (curve of first compound, second compound 0.003 µM) was less than 5.00 and the pIC50 (curve of first compound, second compound 0.00949 µM) was less than 5.00. The pIC50 (curve of first compound, second compound 0.03 µM) was less than 5.00, the pIC50 (curve of first compound, second compound 0.0949 µM) was less than 5.00 and the pIC50 (curve of first compound, second compound 0.3 µM) was greater than 7.50. It also gave a viability, T/C (second compound 0.000949 µM, first compound 0.0316 µM) of 103%, a viability, T/C (second compound 0.000949 µM, first compound 0.1 µM) of 103% and a viability, T/C (second compound 0.000949 µM, first compound 0.316 µM) of 101%. It also gave a viability, T/C (second compound 0.000949 µM, first compound 1 µM) of 99.5%, a viability, T/C (second compound 0.000949 µM, first compound 3.16 µM) of 92.7% and a viability, T/C (second compound 0.000949 µM, first compound 10 µM) of 89.7%. The viability, T/C (second compound 0.003 µM, first compound 0.0316 µM) was 95.6%, the viability, T/C (second compound 0.003 µM, first compound 0.1 µM) was 109% and the viability, T/C (second compound 0.003 µM, first compound 0.316 µM) was 97.8%. For the same compound, the viability, T/C (second compound 0.003 µM, first compound 1 µM) was 98.7%, the viability, T/C (second compound 0.003 µM, first compound 3.16 µM) was 106% and the viability, T/C (second compound 0.003 µM, first compound 10 µM) was 100%. For the same compound, the viability, T/C (second compound 0.00949 µM, first compound 0.0316 µM) was 103%, the viability, T/C (second compound 0.00949 µM, first compound 0.1 µM) was 110% and the viability, T/C (second compound 0.00949 µM, first compound 0.316 µM) was 89.7%. For the same compound, the viability, T/C (second compound 0.00949 µM, first compound 1 µM) was 99%, the viability, T/C (second compound 0.00949 µM, first compound 3.16 µM) was 93.6% and the viability, T/C (second compound 0.00949 µM, first compound 10 µM) was 93.2%. The viability, T/C (second compound 0.03 µM, first compound 0.0316 µM) was 99.4%, the viability, T/C (second compound 0.03 µM, first compound 0.1 µM) was 83.8% and the viability, T/C (second compound 0.03 µM, first compound 0.316 µM) was 84.1%. It also gave a viability, T/C (second compound 0.03 µM, first compound 1 µM) of 87.8%, a viability, T/C (second compound 0.03 µM, first compound 3.16 µM) of 92.6% and a viability, T/C (second compound 0.03 µM, first compound 10 µM) of 85.7%. It also gave a viability, T/C (second compound 0.0949 µM, first compound 0.0316 µM) of 81.8%, a viability, T/C (second compound 0.0949 µM, first compound 0.1 µM) of 101% and a viability, T/C (second compound 0.0949 µM, first compound 0.316 µM) of 86.1%. For the same compound, the viability, T/C (second compound 0.0949 µM, first compound 1 µM) was 72.3%, the viability, T/C (second compound 0.0949 µM, first compound 3.16 µM) was 76.4% and the viability, T/C (second compound 0.0949 µM, first compound 10 µM) was 65.4%. The viability, T/C (second compound 0.3 µM, first compound 0.0316 µM) was 46.8%, the viability, T/C (second compound 0.3 µM, first compound 0.1 µM) was 53.9% and the viability, T/C (second compound 0.3 µM, first compound 0.316 µM) was 42.6%. The viability, T/C (second compound 0.3 µM, first compound 1 µM) was 41.6%, the viability, T/C (second compound 0.3 µM, first compound 3.16 µM) was 31% and the viability, T/C (second compound 0.3 µM, first compound 10 µM) was 33.5%.

With `C[C@@H](NC(=O)c1ncnc(N)c1Cl)c1ncc(C(=O)Nc2cc(C(F)(F)F)c(Cl)cn2)s1` + C#Cc1c(F)ccc2cc(O)cc(-c3ncc4c(N5CC6CCC(C5)N6)nc(OCC56CCCN5CC(F)C6)nc4c3F)c12 the pIC50 (curve of first compound, second compound 0.0316 µM) was less than 5.00, the pIC50 (curve of first compound, second compound 0.1 µM) was less than 5.00 and the pIC50 (curve of first compound, second compound 0.316 µM) was less than 5.00. For the same compound, the pIC50 (curve of first compound, second compound 1 µM) was less than 5.00, the pIC50 (curve of first compound, second compound 3.16 µM) was 5.06 and the pIC50 (curve of first compound, second compound 10 µM) was 5.44. For the same compound, the viability, T/C (second compound 0.0316 µM, first compound 0.0316 µM) was 92.9%, the viability, T/C (second compound 0.0316 µM, first compound 0.1 µM) was 111% and the viability, T/C (second compound 0.0316 µM, first compound 0.316 µM) was 111%. For the same compound, the viability, T/C (second compound 0.0316 µM, first compound 1 µM) was 97%, the viability, T/C (second compound 0.0316 µM, first compound 3.16 µM) was 92.4% and the viability, T/C (second compound 0.0316 µM, first compound 10 µM) was 70.5%. It also gave a viability, T/C (second compound 0.1 µM, first compound 0.0316 µM) of 104%, a viability, T/C (second compound 0.1 µM, first compound 0.1 µM) of 97.1% and a viability, T/C (second compound 0.1 µM, first compound 0.316 µM) of 94.8%. The viability, T/C (second compound 0.1 µM, first compound 1 µM) was 95.3%, the viability, T/C (second compound 0.1 µM, first compound 3.16 µM) was 93.6% and the viability, T/C (second compound 0.1 µM, first compound 10 µM) was 66.1%. The viability, T/C (second compound 0.316 µM, first compound 0.0316 µM) was 94.2%, the viability, T/C (second compound 0.316 µM, first compound 0.1 µM) was 96.9% and the viability, T/C (second compound 0.316 µM, first compound 0.316 µM) was 93.4%. It also gave a viability, T/C (second compound 0.316 µM, first compound 1 µM) of 94.4%, a viability, T/C (second compound 0.316 µM, first compound 3.16 µM) of 91.6% and a viability, T/C (second compound 0.316 µM, first compound 10 µM) of 60.7%. For the same compound, the viability, T/C (second compound 1 µM, first compound 0.0316 µM) was 94.3%, the viability, T/C (second compound 1 µM, first compound 0.1 µM) was 84.8% and the viability, T/C (second compound 1 µM, first compound 0.316 µM) was 99.3%. The viability, T/C (second compound 1 µM, first compound 1 µM) was 87%, the viability, T/C (second compound 1 µM, first compound 3.16 µM) was 92.8% and the viability, T/C (second compound 1 µM, first compound 10 µM) was 52.5%. For the same compound, the viability, T/C (second compound 3.16 µM, first compound 0.0316 µM) was 78.6%, the viability, T/C (second compound 3.16 µM, first compound 0.1 µM) was 80.3% and the viability, T/C (second compound 3.16 µM, first compound 0.316 µM) was 79.2%. It also gave a viability, T/C (second compound 3.16 µM, first compound 1 µM) of 74.1%, a viability, T/C (second compound 3.16 µM, first compound 3.16 µM) of 69.8% and a viability, T/C (second compound 3.16 µM, first compound 10 µM) of 47.2%. It also gave a viability, T/C (second compound 10 µM, first compound 0.0316 µM) of 63%, a viability, T/C (second compound 10 µM, first compound 0.1 µM) of 75.4% and a viability, T/C (second compound 10 µM, first compound 0.316 µM) of 71.7%. For the same compound, the viability, T/C (second compound 10 µM, first compound 1 µM) was 60.6%, the viability, T/C (second compound 10 µM, first compound 3.16 µM) was 53.4% and the viability, T/C (second compound 10 µM, first compound 10 µM) was 31.6%.

In the case of `CC1(C)CCC(Nc2ncc(C(F)(F)F)c(-c3c[nH]c4c(P(C)(C)=O)c(C#N)ccc34)n2)CN1` (stereo unspecified), the viability, T/C (compound 0.000949 µM) was 104% [middle of 4 runs], the viability, T/C (compound 0.003 µM) was 98.7% [middle of 4 runs] and the viability, T/C (compound 0.00949 µM) was 107% [middle of 4 runs]. For the same compound, the viability, T/C (compound 0.03 µM) was 101% [middle of 4 runs], the viability, T/C (compound 0.0949 µM) was 104% [middle of 4 runs] and the viability, T/C (compound 0.3 µM) was 108% [middle of 4 runs]. It also gave a pIC50 (curve of compound) of less than 6.52.
